Data: patent publication US10221426B2, “Constitutively active PYR/PYL receptor proteins for improving plant stress tolerance” (The Regents of the University of California, priority 2009, dated 2019)

Biological target: T1, PYL3-HAB1 (Arabidopsis thaliana, UniProt Q9SSM7)
T1 construct: BD-PYR/PYL fusion proteins were constructed in the same manner as for BD-PYR1 above; expressed in transfected cells; host or cells: yeast (Y190, as for BD-PYR1)
T1 sequence (Q9SSM7 1-209): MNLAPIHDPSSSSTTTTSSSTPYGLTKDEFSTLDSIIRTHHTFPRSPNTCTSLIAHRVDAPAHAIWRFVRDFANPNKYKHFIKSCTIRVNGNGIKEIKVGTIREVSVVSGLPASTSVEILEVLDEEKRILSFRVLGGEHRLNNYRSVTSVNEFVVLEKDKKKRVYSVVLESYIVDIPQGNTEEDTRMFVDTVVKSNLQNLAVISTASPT
T1 sequence (Q9CAJ0 23-511 partner): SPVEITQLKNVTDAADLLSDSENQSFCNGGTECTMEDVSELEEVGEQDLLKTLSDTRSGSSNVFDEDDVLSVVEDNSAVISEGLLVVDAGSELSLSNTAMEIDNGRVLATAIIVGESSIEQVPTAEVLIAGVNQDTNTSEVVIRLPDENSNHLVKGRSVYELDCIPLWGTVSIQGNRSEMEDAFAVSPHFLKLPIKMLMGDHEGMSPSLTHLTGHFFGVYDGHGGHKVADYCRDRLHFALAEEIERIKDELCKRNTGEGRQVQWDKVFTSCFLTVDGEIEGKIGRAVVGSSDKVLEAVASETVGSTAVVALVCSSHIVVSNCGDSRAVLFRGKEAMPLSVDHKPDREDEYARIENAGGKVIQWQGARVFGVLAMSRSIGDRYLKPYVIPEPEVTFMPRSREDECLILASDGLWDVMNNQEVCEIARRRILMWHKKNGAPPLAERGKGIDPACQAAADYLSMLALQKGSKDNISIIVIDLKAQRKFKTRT
Assay: Yeast two-hybrid BD-PYL3 / AD-HAB1 interaction
Type: cell-based
Conditions: 10 μM
Experimental: Given that PYR1 is necessary for pyrabactin action and is a predicted ligand-binding protein, we hypothesized that pyrabactin agonizes ABA signaling by inducing a protein-protein interaction between PYR1 and a downstream effector. To test this, ˜2 million prey cDNA clones were screened against a PYR1 Y2H bait construct on media containing 10 μM pyrabactin. To create the PYR1 Y2H bait construct, the Pyr1 open reading frame was PCR amplified from genomic DNA and cloned to pGem-T easy vector (Promega). After sequence confirmation, the Pyr1 ORF was then cloned in-frame between EcoRI and SalI sites of the pBD-GAL4 Cam vector (Stratagene) and transformed into yeast strain Y190. For the screen, an etiolated seedling cDNA library (J. Kim, K., Harter, A., Theologis, Proc Natl Acad Sci USA 94, 11786 (Oct. 28, 1997)) (ABRC stock CD4-22) was used. The cDNA library was first converted from phage to plasmid DNA, yielding 7.6×10^7 transformants. Plasmid DNA prepared from library was then used to transform Y190 as described in the GAL4 Two-Hybrid system manual (Stratagene). For each screen, 40 μg of prey plasmid was transformed into 1 ml of competent Y190 cell harboring bait construct and then grown on SD agar plates lacking His, Leu, and Trp, but containing 15 mM 3-AT and 10 μM pyrabactin. After 4 days incubation at 30° C., well-grown colonies were rescued and interactions validated using filter lift assay or chloroform-agarose overlay method and X-Gal staining. This identified two pyrabactin-dependent hits which sequencing determined encoded cDNAs for the PP2C HAB1, a close relative of the well-characterized ABA response factor ABI1 (A. Saez et al., The Plant Journal 37, 354 (2004); N. Leonhardt et al., THE PLANT CELL 16, 596 (2004)). Next, Y2H strains expressing an AD-HAB1 fusion protein and a BD-PYR1 fusion protein were grown on plates and tested for interactions in response to various compounds, all at 10 μM except for epi-brassinolide (50 nM) and dimethyl sulfoxide (DMSO) (carrier solvent, 1%). […] Thus, PYR1 interacts with HAB1 in a (+)-ABA dependent fashion.
To see if ABA and pyrabactin responsiveness is unique to PYR1, we tested 11 of the 13 PYL proteins as described above, using Y2H strains expressing an AD-HAB1 fusion protein and a BD-PYR/PYL fusion protein (listed at the left of FIG. 3A). BD-PYR/PYL fusion proteins were constructed in the same manner as for BD-PYR1 above. […] Of these, only Pyr1 is highly transcribed in seeds, which likely explains why mutations in Pyr1 cause the seeds to be insensitive to pyrabactin. […] However the interactions of PYLs 5-12 with the PP2Cs are indicative that the entire protein family is likely to share a similar mechanism of action involving PP2C modulation, as we describe below. Thus, we conclude that entire family modulates ABA responses via PP2C interactions.
The yeast strains expressing PYR/PYL receptors and type 2 C protein phosphatases were also used to screen HPLC-fractionated plant extracts for the presence of endogenous compounds that activate PYL/PYL receptors PYR1, PYL2, PYL3, and/or PYL4. HPLC fractionation of extracts was used to identify compounds different from abscisic acid (the known agonist). […] Purification of the agonist was achieved via multiple rounds of chromatographic separation coupled to yeast two hybrid assays that informed the fractions to move forward at each step of the purification. The structure of the purified agonist was deduced by X-ray crystallography of crystalline purified agonist.

CC1=CC(=O)CC(C)(C)[C@@]1(O)/C=C/C(C)=C\C(=O)O [ABA, Abscisic acid]
PYL3-HAB1 interaction by X-gal stain: interact with HAB1 in an ABA-stimulated manner

O=S(=O)(NCc1ccccn1)c1ccc(Br)c2ccccc12 [pyrabactin]
PYL3-HAB1 interaction by X-gal stain: promotes interactions

CC1=CC(=O)CC(C)(C)C1(O)/C=C/C(C)=C\C(=O)O (single isomer, unassigned; (+)) [(+)-ABA]
PYL3-HAB1 interaction by X-gal stain: respond
